In patent US7452887B2, “Quinoline- and isoquinoline-based compounds exhibiting ATP-utilizing enzyme inhibitory activity, and compositions, and uses thereof” (Amphora Discovery Corporation, priority 2004, dated 2008):

Assays:
MAPKAPK2 = MAPKAPK2 (Homo sapiens, UniProt P49137); assay: HTS ATP-utilizing enzyme assay, off-chip mobility-shift (Caliper HTS 250); type: biochemical; details: test compound 10 μM, kinase listed = active (greater than six-sigma from the mean activity of inactive compounds)
Summary of the method: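 Single-point screen of test compound at 10 μM against MAPKAPK2 with peptide substrate in HEPES pH 7.5 buffer (Triton X-100, BSA), 2.5 h at 20-22 °C. Substrate-to-phosphopeptide ratio was read by off-chip microfluidic mobility shift; EDTA and DMSO wells defined 100% and 0% controls, hits by six-sigma limits.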

PRAK = target: T1, PRAK (Homo sapiens, UniProt Q8IW41); assay: as above; type: biochemical; details: test compound 10 μM, kinase listed = active (greater than six-sigma from the mean activity of inactive compounds)
T1 sequence (Q8IW41 1-473): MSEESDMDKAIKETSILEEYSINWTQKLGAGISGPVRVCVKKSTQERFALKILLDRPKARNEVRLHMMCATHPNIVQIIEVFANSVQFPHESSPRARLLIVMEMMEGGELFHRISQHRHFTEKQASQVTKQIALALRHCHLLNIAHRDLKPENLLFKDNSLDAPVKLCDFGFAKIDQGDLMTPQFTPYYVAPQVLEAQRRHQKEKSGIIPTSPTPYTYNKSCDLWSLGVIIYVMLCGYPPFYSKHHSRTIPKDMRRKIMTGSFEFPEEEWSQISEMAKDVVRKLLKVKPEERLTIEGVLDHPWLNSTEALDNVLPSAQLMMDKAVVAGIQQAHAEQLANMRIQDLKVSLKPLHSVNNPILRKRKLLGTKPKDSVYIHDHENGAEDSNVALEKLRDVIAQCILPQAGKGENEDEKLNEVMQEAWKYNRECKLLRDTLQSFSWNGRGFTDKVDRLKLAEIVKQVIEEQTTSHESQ
Description: The following procedures describe the reagent and plate preparation for a HTS of an ATP-utilizing enzyme, such as a protein kinase, run in an off-chip mobility-shift assay format. The following provides an HTS protocol for running a protein kinase HTS screen on a Caliper HTS 250 microfluidics system. The following parameters are dependent on the protein kinase used and can be determined by one skilled in the art as part of a typical assay development process. For example, the peptide substrate used can be identified from the current literature, by screening a peptide library of potential protein kinase substrates, or by other applicable means accepted in the field.
The following table provides typical screen assay parameters appropriate for a Caliper HTS 250 microfluidics system.
The reagents and buffers listed in the following table are generally applicable for developing and running an HTS screen on a human protein kinase using the Caliper HTS 250 system.
The following reagents were prepared using the previously described buffers.
A 2× Master Buffer solution was prepared by combining 200 mL of 1 M HEPES, pH 7.5, 2 mL of 10% Triton X-100, 20 mL of 10% BSA, and 778 mL of H2O.
A 2.5× Substrate Buffer solution was prepared by combining 177.408 mL of 2× Master Buffer, 0.887 mL of 1 mM peptide-X, and 176.521 mL of H2O.
A 1.55× Termination Buffer solution was prepared by combining 762.05 mL of 2× Master Buffer, 95.1 mL of 0.5 M EDTA, and 666.94 mL of H2O.
A TCB Buffer solution was prepared by combining 125 mL of 2× Master Buffer, 10 mL of 0.5 M EDTA, 6.25 mL of 4% coating reagent, 1.01 mL of 100% DMSO, and 107.74 mL H2O.
A Dye Trough solution was prepared by combining 0.5 μL of peptide-X, and 2,999.5 μL of IX Master Buffer.
A 1.06× Assay Buffer solution was prepared by combining 205.15 mL of 2× Master Buffer, and 181.92 mL of H2O.
Assays to determine the kinase inhibitory activity of compounds of the present disclosure were performed using a Caliper HTS 250 microfluidics device, Greiner U-bottom assay plates, a Multidrop for transfer of reagents, and Biomek FX (AMNCBM03) software. Initially, 2.4 μL of a 1 mM solution of a test compound in 100% DMSO was added to a well of the Greiner U-bottom plate. A single Greiner U-bottom plate having 24×16 wells could include multiple test compounds. Next, […] of 1.06× Assay Buffer was added to each well of the assay plate. Using the Biomek FX, 10 μL of 0.5 M EDTA was added by the span-8 to wells, indicated as 100% Control and 2.4 μL of 100% DMSO was added by the span-8 to wells, indicated as 0% Control. Using the Multidrop, 10 μL of 2.5× Enzyme Buffer, followed by 10 μL of 2.5× Substrate Buffer was added to each well of the assay plate. The total reaction volume in each well was 25 μL, and the concentration of the test compound was 10 μM. The assay plate was incubated for 2.5 hrs at 20° C. to 22° C. After the incubation period, using the Multidrop, 45 μL of 1.55× Termination Buffer was added to each well of the assay plate to stop the reaction. The inhibition of the ATP-utilizing enzyme, such as a particular protein kinase, was determined by measuring the ratio of the peptide substrate to phosphorylated product for each well of the assay plate using the Caliper HTS 250 system.
The use of six-sigma statistical limits represents a conservative method for declaring potential hits among targets. The six-sigma activity, as well as the mean population activity, can be different for each target enzyme. This method has an expected false positive rate, from an in-control measurement process, of one in one million.

Sequence of MAPKAPK2 (P49137 whole entry): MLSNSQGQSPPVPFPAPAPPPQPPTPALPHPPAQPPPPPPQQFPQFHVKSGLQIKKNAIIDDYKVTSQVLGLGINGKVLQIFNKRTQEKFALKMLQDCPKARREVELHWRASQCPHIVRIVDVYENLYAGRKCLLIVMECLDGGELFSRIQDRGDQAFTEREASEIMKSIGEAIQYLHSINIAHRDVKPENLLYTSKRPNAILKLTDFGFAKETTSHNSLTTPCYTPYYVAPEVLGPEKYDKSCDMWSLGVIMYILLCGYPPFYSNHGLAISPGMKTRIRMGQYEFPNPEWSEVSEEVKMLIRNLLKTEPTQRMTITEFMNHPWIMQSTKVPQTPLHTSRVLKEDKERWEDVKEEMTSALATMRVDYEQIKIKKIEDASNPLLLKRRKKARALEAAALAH

| Compound | Activity (MAPKAPK2) | Activity (PRAK) |
| --- | --- | --- |
| CN1CCN(c2ccc(Nc3ccnc4ccc(-c5ccc([S+](C)[O-])cc5)cc34)cc2)CC1 (stereo not drawn) [N-(4-(4-methylpiperazin-1-yl)phenyl)-6-(4-(methylsulfinyl)phenyl)quinolin-4-amine] | MAPKAPK2 | PRAK |
| N#CCCN1CCN(c2ccc(Nc3ccnc4ccc(-c5ccc(C#N)cc5)cc34)cc2)CC1 [4-(4-(4-(4-(2-cyanoethyl)piperazin-1-yl)phenylamino)quinolin-6-yl)benzonitrile] | MAPKAPK2 | PRAK |
| CN1CCN(c2ccc(Nc3ccnc4ccc(-c5c(F)cccc5F)cc34)cc2)CC1 [6-(2,6-difluorophenyl)-N-(4-(4-methylpiperazin-1-yl)phenyl)quinolin-4-amine] | MAPKAPK2 | PRAK |
| N#Cc1ccc(-c2ccc3nccc(Nc4ccc(N5CCN(CC(=O)O)CC5)cc4)c3c2)cc1 [2-(4-(4-(6-(4-cyanophenyl)quinolin-4-ylamino)phenyl)piperazin-1-yl)acetic acid] | MAPKAPK2 | PRAK |
| CCCN1CCN(c2ccc(Nc3ccnc4ccc(-c5ccccc5)cc34)cc2)CC1 [6-phenyl-N-(4-(4-propylpiperazin-1-yl)phenyl)quinolin-4-amine] | MAPKAPK2 | PRAK |
| CN1CCN(c2ccc(Nc3ccnc4ccc(-c5cccc(C(F)(F)F)c5)cc34)cc2)CC1 [N-(4-(4-methylpiperazin-1-yl)phenyl)-6-(3-(trifluoromethyl)phenyl)quinolin-4-amine] |  | PRAK |
| CCN1CCN(c2ccc(Nc3ccnc4ccc(-c5ccc(C#N)cc5)cc34)cc2)CC1 [4-(4-(4-(4-ethylpiperazin-1-yl)phenylamino)quinolin-6-yl)benzonitrile] | MAPKAPK2 | PRAK |
| CC(=O)c1ccc(-c2ccc3nccc(Nc4ccc(N5CCN(C)CC5)cc4)c3c2)s1 [1-(5-(4-(4-(4-methylpiperazin-1-yl)phenylamino)quinolin-6-yl)thiophen-2-yl)ethanone] | MAPKAPK2 | PRAK |
| COc1ccc(F)cc1-c1ccc2nccc(Nc3ccc(N4CCN(C)CC4)cc3)c2c1 [6-(5-fluoro-2-methoxyphenyl)-N-(4-(4-methylpiperazin-1-yl)phenyl)quinolin-4-amine] | MAPKAPK2 | PRAK |
| CN1CCN(c2ccc(Nc3ccnc4ccc(-c5ccccc5F)cc34)cc2)CC1 [6-(2-fluorophenyl)-N-(4-(4-methylpiperazin-1-yl)phenyl)quinolin-4-amine] | MAPKAPK2 | PRAK |
| CN1CCN(c2ccc(Nc3ccnc4ccc(-c5ccccc5)cc34)cc2)CC1 [N-(4-(4-methylpiperazin-1-yl)phenyl)-6-phenylquinolin-4-amine] |  | PRAK |

Results, then the compound that gave them:

| Activity (MAPKAPK2) | Activity (PRAK) | Compound |
| --- | --- | --- |
| MAPKAPK2 | PRAK | N#Cc1ccc(-c2ccc3nccc(Nc4ccc(N5CCNCC5)cc4)c3c2)cc1 [4-(4-(4-(piperazin-1-yl)phenylamino)quinolin-6-yl)benzonitrile] |
| MAPKAPK2 | PRAK | N#CCCN1CCN(c2ccc(Nc3ccnc4ccc(-c5ccccc5)cc34)cc2)CC1 [3-(4-(4-(6-phenylquinolin-4-ylamino)phenyl)piperazin-1-yl)propanenitrile] |
| MAPKAPK2 | PRAK | CN1CCN(c2ccc(Nc3ccnc4ccc(-c5cccc(F)c5)cc34)cc2)CC1 [6-(3-fluorophenyl)-N-(4-(4-methylpiperazin-1-yl)phenyl)quinolin-4-amine] |
| MAPKAPK2 | PRAK | CCCCc1ccc(-c2ccc3nccc(Nc4ccc(N5CCN(C)CC5)cc4)c3c2)cc1 [6-(4-butylphenyl)-N-(4-(4-methylpiperazin-1-yl)phenyl)quinolin-4-amine] |
| MAPKAPK2 | PRAK | CN1CCN(c2ccc(Nc3ccnc4ccc(-c5ccsc5)cc34)cc2)CC1 [N-(4-(4-methylpiperazin-1-yl)phenyl)-6-(thiophen-3-yl)quinolin-4-amine] |
| MAPKAPK2 | PRAK | CN1CCN(c2ccc(Nc3ccnc4ccc(-c5ccc(CO)cc5)cc34)cc2)CC1 [(4-(4-(4-(4-methylpiperazin-1-yl)phenylamino)quinolin-6-yl)phenyl)methanol] |
|  | PRAK | CSc1ccc(-c2ccc3nccc(Nc4ccc(N5CCN(C)CC5)cc4)c3c2)cc1 [N-(4-(4-methylpiperazin-1-yl)phenyl)-6-(4-(methylthio)phenyl)quinolin-4-amine] |
| MAPKAPK2 | PRAK | CCN1CCN(c2ccc(Nc3ccnc4ccc(-c5ccccc5)cc34)cc2)CC1 [N-(4-(4-ethylpiperazin-1-yl)phenyl)-6-phenylquinolin-4-amine] |
| MAPKAPK2 | PRAK | CN1CCN(c2ccc(Nc3ccnc4ccc(-c5ccc(F)c(F)c5)cc34)cc2)CC1 [6-(3,4-difluorophenyl)-N-(4-(4-methylpiperazin-1-yl)phenyl)quinolin-4-amine] |
|  | PRAK | CN(C)C1CCN(c2ccc(Nc3ccnc4ccc(-c5ccc(C#N)cc5)cc34)cc2)C1 (stereo not drawn) [4-(4-(4-(3-(dimethylamino)pyrrolidin-1-yl)phenylamino)quinolin-6-yl)benzonitrile] |
| MAPKAPK2 | PRAK | CCCN1CCN(c2ccc(Nc3ccnc4ccc(-c5ccc(C#N)cc5)cc34)cc2)CC1 [4-(4-(4-(4-propylpiperazin-1-yl)phenylamino)quinolin-6-yl)benzonitrile] |
| MAPKAPK2 | PRAK | CN1CCN(c2ccc(Nc3ccnc4ccc(-c5ccc(Cl)cc5)cc34)cc2)CC1 [6-(4-chlorophenyl)-N-(4-(4-methylpiperazin-1-yl)phenyl)quinolin-4-amine] |
| MAPKAPK2 | PRAK | Cc1cc(F)ccc1-c1ccc2nccc(Nc3ccc(N4CCN(C)CC4)cc3)c2c1 [6-(4-fluoro-2-methylphenyl)-N-(4-(4-methylpiperazin-1-yl)phenyl)quinolin-4-amine] |
| MAPKAPK2 | PRAK | CN1CCN(c2ccc(Nc3ccnc4ccc(-c5ccc(OC(F)(F)F)cc5)cc34)cc2)CC1 [N-(4-(4-methylpiperazin-1-yl)phenyl)-6-(4-(trifluoromethoxy)phenyl)quinolin-4-amine] |
| MAPKAPK2 | PRAK | COc1ccc(OC)c(-c2ccc3nccc(Nc4ccc(N5CCN(C)CC5)cc4)c3c2)c1 [6-(2,5-dimethoxyphenyl)-N-(4-(4-methylpiperazin-1-yl)phenyl)quinolin-4-amine] |
